Experimental data taken from US20110173718A1, “HERBICIDE TOLERANT PLANTS” (SYNGENTA CROP PROTECTION, INC., priority 2008, published 2011).
Several values for one entry are separate records, joined by “and”; a condition that tells them apart may be missing. Identical values can stand only once.

How the values were obtained:
[1] = tested on: tobacco plants expressing Pseudomonas fluorescens HPPD; test: Glasshouse spray test, Pseudomonas HPPD transgenic tobacco; assay type: in vivo; details: for % damage observed 16 DAT: Pseudomonas HPPD T1; for % damage at 7 DAT: C2 line (Pseudomonas HPPD, T2), individual plants
Excerpt: Tobacco plants expressing the wild-type HPPD gene of Pseudomonas fluorescens strain 87-79 under operable control of the double enhanced 35S CMV promoter region, Nos3′ terminator and TMV translational enhancer were provided as detailed in Example 4 of WO0246387.
Seed of wild-type tobacco plants, C2 tobacco plants and of the T1 progeny of a further Arabidopsis-HST expressing tobacco line, D2 were planted out in 3 inch pots, grown on, sprayed with compounds 1.1, 2.30 and 3.6 at the rates shown in table 5. Percent damage scores were assessed at 7 DAT. Aside from the presumptive non-transgenic segregants the D2 line containing the Arabidopis HST expression construct offered the highest level of tolerance to the two HST herbicides with the Psuedomonas HPPD, C2 line, offering only marginal tolerance under the conditions of this test.
Transgenic lines of tobacco, soyabean and corn etc. can be engineered to express various heterologous HPPDs derived from, for example Avena (SEQ ID #26), Wheat (SEQ ID #27), Pseudomonas fluorescens (SEQ ID # 25) and Shewanella colwelliana (SEQ ID #28) as, for example, described in WO 02/46387.
Single copy events amongst the T1 plant lines are identified by their 3:1 segregation ratio (wrt kanamycin and or herbicide) and by quantitative RT-PCR. Seed from the thus selected T1 tobacco (var Samsun) lines are sown in 3 inch diameter pots containing 50% peat, 50% John Innes soil no 3. After growth to the 3 leaf stage, plants are sprayed, as described above, in order to test for herbicide tolerance relative to like-treated non-transgenic tobacco plants.
Control tobacco plants and transgenic T1 plants expressing either the Pseudomonas or the wheat HPPD gene are sprayed at 37, 111, 333 and 1000 g/ha rates of HST inhibitors and, for example, compound 2.3.
Plants are assessed and scored for % damage at 16 DAT.

[2] = tested on: Arabidopsis HST transgenic tobacco plants; test: Glasshouse spray test, Arabidopsis HST transgenic tobacco; assay type: in vivo; details: for Damage % 5 DAT / Damage % 10 DAT: 10 g/ha; for Damage % 5 DAT / Damage % 10 DAT / blch (% bleaching at the meristem relative to control plants) / ht (% height reduction relative to control plants): individual T0 lines; for blch (% bleaching at the meristem relative to control plants) / ht (% height reduction relative to control plants): 100 g; for % damaged: 8 DAT
Excerpt: For example the Arabidopsis HST SEQ ID # 11 is cloned behind a double 35s CMV promoter sequence and a TMV translational enhancer sequence and in front of the 3′ terminator from the nos gene. This expression cassette is ligated into pMJB1 (described in WO98/20144) and then into pBIN19 and then transformed into Agrobacterium tuniqfaciens strains LBA4404 prior to plant transformation.
For example, the full length Arabidopsis HST seq ID # 11 is fused to the TMV translational enhancer sequence (SEQ ID #33) by overlapping PCR and, at the same time, 5′ XhoI site and a 3′KpnI site are added by PCR. Site-directed mutagenesis is performed to remove an internal XhoI site. The TMV/HPPD fusion is removed from the pBIN19 by digestion with XhoI/KpnI and is replaced by the TMV/HST fusion (SEQ ID #34). The TMV/HST fusion is now cloned behind a double 35s promoter and in front of the 3′ terminator from the nos gene. Again the modified pBIN19 vector (‘pBinAT HST’) is then transformed into Agrobacterium tumefaciens strain LBA4404.
A master plate of Agrobacterium tumefaciens containing the binary vector pBinAT HST (described above) or analogous binary vector comprising a different HST is used to inoculate 10 ml LB containing 100 mg/1 Rifampicin plus 50 mg/1 Kanamycin using a single bacterial colony. This is incubated overnight at 28° C. shaking at 200 rpm. This entire overnight culture is used to inoculate a 50 ml volume of LA (plus antibiotics). Again this is cultured overnight at 28° C. shaking at 200 rpm. The Agrobacterium cells are pelleted by centrifuging at 3000 rpm for 15 minutes then resuspended in MS medium with 30 g/1 sucrose, pH 5.9 to an OD ([…])=0.6. This suspension is dispensed in 25 ml aliquots into petri dishes.
Clonal micro-propagated tobacco shoot cultures are used to excise young (not yet fully expanded) leaves. The mid rib and outer leaf margins are removed and discarded, the remaining lamina is cut into 1 cm squares. These are transferred to the Agrobacterium suspension for 20 minutes. Explants are then removed, dabbed on sterile filter paper to remove excess suspension then transferred to NBM medium (MS medium, 30 g/1 sucrose, 1 mg/1 BAP, 0.1 mg/1 NAA, pH 5.9, solidified with 8 g/1 Plantagar), with the abaxial surface of each explant in contact with the medium. Approximately 7 explants are transferred per plate, which are then sealed then maintained in a lit incubator at 25° C., 16 hour photoperiod for 3 days.
Explants are then transferred to NBM medium containing 100 mg/1 Kanamycin plus antibiotics to prevent further growth of Agrobacterium (200 mg/1 timentin with 250 mg/1 carbenicillin). Further subculture on to this same medium is then performed every 2 weeks.
As shoots start to regenerate from the callusing leaf explants these are removed to Shoot elongation medium (MS medium, 30 g/1 sucrose, 8 g/1 Plantagar, 100 mg/1 Kanamycin, 200 mg/1 timentin, 250 mg/1 carbenicillin, pH 5.9). Stable transgenic plants readily root within 2 weeks. To provide multiple plants per event to ultimately allow more than one herbicide test per transgenic plant all rooting shoots are micropropagated to generate 3 or more rooted clones.
Putative transgenic plants that are rooting and show vigorous shoot growth on the medium incorporating Kanamycin are analysed by PCR using primers that amplified a 500 bp fragment within the Arabidopsis HST transgene.
Rooted transgenic T0 plantlets are transferred from agar and potted into 50% peat, 50% John Innes soil no 3 or, for example, MetroMix® 380 soil (Sun Gro Horticulture, Bellevue, Wash.) with slow-release fertilizer in 3 inch round or 4 inch square pots and left regularly watered to establish for 8-12 d in the glass house. Glass house conditions are about 24-27° C. day; 18-21° C. night and approximately a 14 h (or longer in UK summer) photoperiod. Humidity is ˜65% and light levels up to 2000 μmol/m^2 at bench level. […]

Question: `O=c1c(-c2c(F)ccc(F)c2Cl)c(O)c2nccnc2n1CC(F)F` [Compound 2.3] was tested. Which “% damage observed 16 DAT” value ([1]; 37 g/ha) did it give?
Answer: Its value is 0%.

Question: What about the “% damage observed 16 DAT” value ([1]; 111 g/ha) of the same compound?
Answer: Its value is 3%.

Question: And the “% damage observed 16 DAT” value ([1]; 333 g/ha)?
Answer: The value was 6%.

Question: What about the “% damage observed 16 DAT” value ([1]; 1000 g/ha) of the same compound?
Answer: The value was 10%.

Question: With `CS(=O)(=O)c1ccc(C(=O)C2C(=O)CCCC2=O)c([N+](=O)[O-])c1` [Mesotrione, mesotrione, reference compound] as the compound, how does the “Damage % 5 DAT” value ([2]; T0 line 332) read?
Answer: The value was 30%.

Question: What about the “Damage % 5 DAT” value ([2]; T0 line 351) of the same compound?
Answer: Its value is 50%.

Question: What about the “Damage % 5 DAT” value ([2]; T0 line 367) of the same compound?
Answer: The value was 25%.

Question: And the “Damage % 5 DAT” value ([2]; T0 line 404)?
Answer: Its value is 45%.

Question: And the “Damage % 5 DAT” value ([2]; T0 line 426)?
Answer: Its value is 45%.

Question: And the “Damage % 10 DAT” value ([2]; T0 line 332)?
Answer: The value was 10%.

Question: What about the “Damage % 10 DAT” value ([2]; T0 line 351) of the same compound?
Answer: Its value is 25%.

Question: What about the “Damage % 10 DAT” value ([2]; T0 line 367) of the same compound?
Answer: The value was 10%.

Question: And the “Damage % 10 DAT” value ([2]; T0 line 404)?
Answer: Its value is 20%.

Question: And the “Damage % 10 DAT” value ([2]; T0 line 426)?
Answer: Its value is 20%.

Question: And the “ht (herbicidal damage)” value ([2]; Arabidopsis HST T0 tobacco events (one value per event), 15 g/ha of mesotrione, 21 DAT)?
Answer: The value was 80 and 90 and 85 and 70 and 75.

Question: And the “% damage observed 16 DAT” value ([1]; 37 g/ha)?
Answer: The value was 3%.

Question: What about the “% damage observed 16 DAT” value ([1]; 111 g/ha) of the same compound?
Answer: Its value is 3%.

Question: What about the “% damage observed 16 DAT” value ([1]; 333 g/ha) of the same compound?
Answer: The value was 43%.

Question: And the “% damage observed 16 DAT” value ([1]; 1000 g/ha)?
Answer: The value was 67%.

Question: For `CC(C)C(=O)Oc1c(-c2c(F)ccc(Br)c2Cl)c(=O)n(CC(F)F)c2nccnc12` [Compound 2.30], which “blch (% bleaching at the meristem relative to control plants)” value ([2]; 7 DAT) is on record?
Answer: Its value is 30% (2×) and 5% (4×) and 10% (3×) and 15% (2×) and 50% and 70% (2×) and 20% (2×) and 0% (5×) and 40% and 100% and 80% and 25%.

Question: What about the “ht (% height reduction relative to control plants)” value ([2]; 7 DAT) of the same compound?
Answer: Its value is 30% (4×) and 0% (7×) and 50% and 70% (3×) and 80% (3×) and 40% (2×) and 5% and 10% (2×) and 15% and 20%.

Question: And the “blch (% bleaching at the meristem relative to control plants)” value ([2]; 26 DAT)?
Answer: The value was 25% (2×) and 0% (16×) and 100% and 85% (2×) and 90% (4×).

Question: What about the “ht (% height reduction relative to control plants)” value ([2]; 26 DAT) of the same compound?
Answer: The value was 75% (2×) and 5% (6×) and 15% (2×) and 30% (4×) and 50% (2×) and 60% and 80% and 90% (4×) and 35% and 10% (2×).

Question: And the “% damage at 7 DAT” value ([1]; 150 gai/ha)?
Answer: The value was 90% and 70% and 80% (2×).

Question: And the “% damage at 7 DAT” value ([1]; 300 gai/ha)?
Answer: The value was 85%.

Question: And the “% damage at 7 DAT” value ([1]; 450 gai/ha)?
Answer: Its value is 65% and 70% and 85% (2×).

Question: How did the “% damaged” value ([2]; 250 g/ha, line E9) turn out when `Oc1c(Cl)c(F)nc(F)c1Cl` [Compound 1.1, haloxydine] was run?
Answer: Its value is 20% and 40%.

Question: What about the “% damaged” value ([2]; 250 g/ha, line F6) of the same compound?
Answer: The value was 50% and 75%.

Question: What about the appearance of plants ([2]; 250 g/ha, 25 DAT, line E9) of the same compound?
Answer: Its appearance of plants is “healthy and similar sized to untreated control plants”.

Question: What about the “% damage” value ([2]; 250 g/ha, 25 DAT, line F6) of the same compound?
Answer: Its value is 50-70%.

Question: And the “% damage at 7 DAT” value ([1]; 25 gai/ha)?
Answer: Its value is 75%.
